Experimental data: article PMC10818749, “Toxicity Studies of Cardiac-Targeting Peptide Reveal a Robust Safety Profile” (Pharmaceutics, 2024)

How the values were obtained:
cancer cell lines = conditions: ref Saar and colleagues; cited from earlier work
CHO-KCNQ1/minK = CHO-KCNQ1/minK (Homo sapiens, UniProt P15382+P51787); conditions: read-out: Estimated IC50 (reference compound); antagonist mode; Qube APC (1 conc.)
HEK-Kir2.1 = molecular target: T1, HEK-Kir2.1 (Homo sapiens, UniProt P63252); type: cell-based; conditions: read-out: Estimated IC50 (reference compound)
T1 construct: host or cells: HEK

HEK-Kv4.3/KChIP2 = HEK-Kv4.3/KChIP2 (Homo sapiens, UniProt Q9NS61+Q9UK17); experiment: cell-based
[1] = molecular target: T2, HEK-Nav1.5 (Late, Antagonist) (Homo sapiens, UniProt Q14524); type: cell-based; conditions: antagonist mode; Qube APC (1 conc.); late current, 50nM ATXII; read-out: Estimated IC50 (reference compound)
T2 construct: CYL7004QB2DR (late); host or cells: HEK

[2] = test system: leukemia and peripheral blood monocyte cell line; parameters: method as in PMID 16137634; conditions: 5 and 10 µM; ref [51]; cited from earlier work

T2 sequence (Q14524 whole entry): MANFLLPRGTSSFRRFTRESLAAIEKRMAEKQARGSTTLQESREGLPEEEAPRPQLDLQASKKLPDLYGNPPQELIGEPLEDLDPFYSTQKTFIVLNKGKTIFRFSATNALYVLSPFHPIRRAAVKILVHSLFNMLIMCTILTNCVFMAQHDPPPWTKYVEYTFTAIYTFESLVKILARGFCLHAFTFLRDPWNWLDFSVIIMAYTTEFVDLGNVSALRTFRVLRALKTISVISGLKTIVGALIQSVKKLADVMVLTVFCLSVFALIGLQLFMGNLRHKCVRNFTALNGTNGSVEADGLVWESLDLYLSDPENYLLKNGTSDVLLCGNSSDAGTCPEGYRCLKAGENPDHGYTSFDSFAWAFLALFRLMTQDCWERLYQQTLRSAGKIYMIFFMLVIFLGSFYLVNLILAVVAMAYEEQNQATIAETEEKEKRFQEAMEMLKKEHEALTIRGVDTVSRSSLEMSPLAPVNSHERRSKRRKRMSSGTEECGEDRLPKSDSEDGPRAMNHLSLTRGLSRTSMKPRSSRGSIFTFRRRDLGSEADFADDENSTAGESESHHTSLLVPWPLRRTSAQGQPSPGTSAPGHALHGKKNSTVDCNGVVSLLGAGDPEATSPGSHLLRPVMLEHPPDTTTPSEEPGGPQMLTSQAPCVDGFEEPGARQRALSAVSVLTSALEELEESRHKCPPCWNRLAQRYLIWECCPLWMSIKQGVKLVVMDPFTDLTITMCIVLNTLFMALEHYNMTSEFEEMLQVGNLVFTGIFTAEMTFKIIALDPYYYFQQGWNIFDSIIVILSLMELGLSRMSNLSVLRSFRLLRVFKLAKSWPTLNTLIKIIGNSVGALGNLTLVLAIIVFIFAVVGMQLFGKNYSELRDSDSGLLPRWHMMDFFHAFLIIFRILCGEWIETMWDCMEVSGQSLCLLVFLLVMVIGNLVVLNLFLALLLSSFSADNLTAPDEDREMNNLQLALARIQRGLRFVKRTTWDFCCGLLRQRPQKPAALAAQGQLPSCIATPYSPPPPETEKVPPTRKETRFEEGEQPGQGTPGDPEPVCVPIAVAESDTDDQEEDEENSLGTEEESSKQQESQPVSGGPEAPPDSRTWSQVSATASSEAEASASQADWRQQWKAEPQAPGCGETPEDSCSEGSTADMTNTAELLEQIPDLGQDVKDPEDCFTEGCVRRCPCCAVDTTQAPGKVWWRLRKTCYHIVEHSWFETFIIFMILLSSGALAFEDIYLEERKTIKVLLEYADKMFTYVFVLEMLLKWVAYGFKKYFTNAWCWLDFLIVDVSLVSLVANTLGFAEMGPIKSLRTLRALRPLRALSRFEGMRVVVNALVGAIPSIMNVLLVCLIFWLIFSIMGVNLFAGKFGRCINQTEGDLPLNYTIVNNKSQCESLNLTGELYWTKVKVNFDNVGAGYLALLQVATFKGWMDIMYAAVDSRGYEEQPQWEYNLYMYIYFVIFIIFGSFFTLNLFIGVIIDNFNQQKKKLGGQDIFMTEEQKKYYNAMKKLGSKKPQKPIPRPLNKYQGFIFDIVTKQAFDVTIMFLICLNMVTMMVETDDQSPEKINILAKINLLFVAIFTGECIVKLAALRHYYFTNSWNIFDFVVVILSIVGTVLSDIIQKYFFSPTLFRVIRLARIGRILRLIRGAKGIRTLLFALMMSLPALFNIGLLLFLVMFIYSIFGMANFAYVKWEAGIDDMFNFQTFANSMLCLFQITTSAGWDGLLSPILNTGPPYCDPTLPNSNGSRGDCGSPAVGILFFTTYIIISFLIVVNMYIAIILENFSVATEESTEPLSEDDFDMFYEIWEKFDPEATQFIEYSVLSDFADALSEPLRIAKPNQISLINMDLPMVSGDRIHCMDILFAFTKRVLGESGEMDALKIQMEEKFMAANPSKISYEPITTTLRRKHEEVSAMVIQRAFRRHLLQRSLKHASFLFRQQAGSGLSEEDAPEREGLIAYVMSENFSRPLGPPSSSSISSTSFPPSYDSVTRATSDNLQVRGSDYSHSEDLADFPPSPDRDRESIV
Chain of HEK-Kv4.3/KChIP2 (Q9UK17 whole entry): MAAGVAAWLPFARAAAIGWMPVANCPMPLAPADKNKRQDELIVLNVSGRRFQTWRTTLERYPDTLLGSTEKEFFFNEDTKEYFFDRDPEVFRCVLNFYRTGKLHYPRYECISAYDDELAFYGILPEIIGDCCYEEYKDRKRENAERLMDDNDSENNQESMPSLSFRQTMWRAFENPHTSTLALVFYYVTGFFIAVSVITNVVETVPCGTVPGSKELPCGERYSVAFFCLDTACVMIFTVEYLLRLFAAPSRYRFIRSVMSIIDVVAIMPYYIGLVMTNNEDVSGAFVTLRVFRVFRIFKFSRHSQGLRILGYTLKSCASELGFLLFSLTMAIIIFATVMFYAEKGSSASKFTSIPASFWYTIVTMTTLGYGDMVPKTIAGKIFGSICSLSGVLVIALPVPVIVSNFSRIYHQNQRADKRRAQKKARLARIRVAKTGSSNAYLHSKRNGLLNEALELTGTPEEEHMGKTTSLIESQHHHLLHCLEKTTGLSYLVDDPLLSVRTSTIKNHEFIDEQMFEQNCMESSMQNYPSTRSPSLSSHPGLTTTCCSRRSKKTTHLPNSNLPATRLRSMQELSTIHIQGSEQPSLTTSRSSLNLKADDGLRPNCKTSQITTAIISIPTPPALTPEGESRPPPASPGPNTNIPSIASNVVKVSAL
Chain of HEK-Kv4.3/KChIP2 (Q9NS61 whole entry partner): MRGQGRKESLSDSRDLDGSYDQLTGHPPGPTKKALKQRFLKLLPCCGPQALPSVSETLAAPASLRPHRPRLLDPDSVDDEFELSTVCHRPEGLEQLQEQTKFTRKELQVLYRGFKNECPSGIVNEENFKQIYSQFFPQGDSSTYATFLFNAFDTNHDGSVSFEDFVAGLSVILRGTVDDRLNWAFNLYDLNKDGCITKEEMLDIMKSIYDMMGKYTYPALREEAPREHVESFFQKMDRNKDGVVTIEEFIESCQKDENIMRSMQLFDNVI
T1 sequence (P63252 whole entry): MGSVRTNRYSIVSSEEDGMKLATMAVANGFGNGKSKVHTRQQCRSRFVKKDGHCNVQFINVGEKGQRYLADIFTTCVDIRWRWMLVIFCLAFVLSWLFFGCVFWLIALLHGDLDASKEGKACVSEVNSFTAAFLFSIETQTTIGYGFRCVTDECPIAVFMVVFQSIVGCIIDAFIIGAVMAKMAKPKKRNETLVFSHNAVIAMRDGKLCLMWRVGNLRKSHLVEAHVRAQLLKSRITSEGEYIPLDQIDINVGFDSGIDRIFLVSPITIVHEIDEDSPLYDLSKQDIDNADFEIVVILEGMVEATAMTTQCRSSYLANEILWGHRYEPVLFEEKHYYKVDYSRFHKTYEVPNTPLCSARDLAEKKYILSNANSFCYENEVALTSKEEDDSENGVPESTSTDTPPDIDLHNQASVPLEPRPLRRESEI

## pVEC: well-characterized, non-cell-specific CPP (TLLIILRRRIRKQAHAHS; UniProt P55284 615-632, looked up, fragment)
Cancer cell lines
  membrane leakage of lactate dehydrogenase: minimal membrane leakage of lactate dehydrogenase

## CCS(=O)(=O)N(C)[C@H]1c2cc(C#N)ccc2OC(C)(C)[C@@H]1O (racemic) [Chromanol 293B, reference compound]
CHO-KCNQ1/minK
  IC50: 21.5 µM

## [Ba+2].[Cl-].[Cl-] [Barium Chloride, reference compound]
HEK-Kir2.1
  IC50: 17.7 µM

## O=C(NCC1CCCCN1)c1cc(OCC(F)(F)F)ccc1OCC(F)(F)F (stereo not shown) [Flecainide]
HEK-Kv4.3/KChIP2
  IC50: 12.5 µM

## COc1ccccc1OCC(O)CN1CCN(CC(=O)Nc2c(C)cccc2C)CC1 (stereo not shown) [Ranolazine, reference compound]
[1]
  IC50: 72.5 µM

## transportan 10
[2]
  cytokine release: no increase in cytokine levels
Cancer cell lines
  membrane leakage of lactate dehydrogenase: significant leakage
